Experiments:
[1] = system: duplex-form calf thymus DNA (CT-DNA); experiment: Thermal denaturation studies with CT-DNA; type: binding; conditions: [BPD]:[DNA] molar ratio 1:5, CT-DNA 100 μM, ligand 20 μM, pH 7.00
Method: Compounds were subjected to thermal denaturation studies with duplex-form calf thymus DNA (CT-DNA). Working solutions in aqueous buffer (10 mM NaH2PO4/Na2HPO4, 1 mM Na2EDTA, pH 7.00+0.01) containing CT-DNA (100 μm in phosphate) and the BPD (20 μm) were prepared by addition of concentrated BPD solutions in DMSO to obtain a fixed [BPD]/[DNA] molar ratio of 1:5. The DNA-BPD solutions were incubated at 37° C. for 0, 18, and 36 h prior to analysis. Samples were monitored at 260 nm using a Beckman DU-7400 spectrophotometer fitted with high performance temperature controller, and heating was applied at 1° C. min-1 in the 40-90° C. range. DNA helix coil transition temperatures (Tm) were obtained from the maxima in the (dA260)/dT derivative plots. Results are given as the mean±standard deviation from three determinations and are corrected for the effects of DMSO co-solvent using a linear correction term. Drug-induced alterations in DNA melting behavior are given by: ΔTm=Tm(DNA+BPD)−Tm(DNA alone), where the Tm value for the BPD-free CT-DNA is 69.0±0.01.

[2] = system: sixty human tumor cells derived from nine cancer types; experiment: NCI in vitro anticancer screen, 48 h exposure, SRB assay, mean over all lines; type: cell-based; conditions: for GI50: Homo sapiens, wide spectrum of activity against sixty cell lines in nine cell panels; for Log10LC50 mean graph midpoint (MG_MID) / Log10GI50 mean graph midpoint (MG_MID) / Log10TGI mean graph midpoint (MG_MID): human tumor cell lines, 48 h exposure; for Log10LC50 mean graph midpoint (MG_MID): 50% cell death; for Log10GI50 mean graph midpoint (MG_MID): 50% cell growth inhibition; for Log10TGI mean graph midpoint (MG_MID): total cell growth inhibition
Method: (§1) Compounds described herein were evaluated for in vitro anticancer activity. Particularly the 6a, 6b, 6d, 6h, 8a and 8b compounds were evaluated for in vitro anticancer activity against sixty human tumor cells derived from nine cancer types (leukemia, non-small-cell lung, colon, […], ovarian, prostate, and breast cancer) as shown in (Table 2 and 3). For the compound, dose response curves for each cell line were measured at a minimum of five concentrations at 10 fold dilutions. A protocol of 48 h continuous drug exposure was used and a sulforhodamine B (SRB) protein assay was used to estimate cell viability or growth. The concentration causing 50% cell growth inhibition (GI50), total cell growth inhibition (TGI 0% growth) and 50% cell death (LC50, −50% growth) compared with the control was calculated.

[3] = system: Leukemia cancer cell lines; experiment: NCI in vitro anticancer screen, leukemia panel; type: cell-based, human; conditions: average of six to nine cell lines; for GI50: Homo sapiens, read-out: Log GI50 (concentration in mol/L causing 50% growth inhibition) (converted)
Method: as §1

[4] = system: Nonsmall-cell-lung cancer cell lines; experiment: NCI in vitro anticancer screen, non-small-cell lung panel; type: cell-based, human; conditions: average of six to nine cell lines; for GI50: Homo sapiens, read-out: Log GI50 (concentration in mol/L causing 50% growth inhibition) (converted)
Method: as §1

Colon cancer cell lines = experiment: NCI in vitro anticancer screen, colon panel; type: cell-based, human; conditions: average of six to nine cell lines; for GI50: Homo sapiens, read-out: Log GI50 (concentration in mol/L causing 50% growth inhibition) (converted)
Method: as §1

CNS cancer cell lines = experiment: NCI in vitro anticancer screen, CNS panel; type: cell-based, human; conditions: average of six to nine cell lines; for GI50: Homo sapiens, read-out: Log GI50 (concentration in mol/L causing 50% growth inhibition) (converted)
Method: as §1

[5] = system: Melanoma cancer cell lines; experiment: NCI in vitro anticancer screen, melanoma panel; type: cell-based, human; conditions: average of six to nine cell lines; for GI50: Homo sapiens, read-out: Log GI50 (concentration in mol/L causing 50% growth inhibition) (converted)
Method: as §1

[6] = system: Ovarian cancer cell lines; experiment: NCI in vitro anticancer screen, ovarian panel; type: cell-based, human; conditions: average of six to nine cell lines; for GI50: Homo sapiens, read-out: Log GI50 (concentration in mol/L causing 50% growth inhibition) (converted)
Method: as §1

Renal cancer cell lines = experiment: NCI in vitro anticancer screen, renal panel; type: cell-based, human; conditions: average of six to nine cell lines; for GI50: Homo sapiens, read-out: Log GI50 (concentration in mol/L causing 50% growth inhibition) (converted)
Method: as §1

[7] = system: Prostate cancer cell lines; experiment: NCI in vitro anticancer screen, prostate panel; type: cell-based, human; conditions: average of six to nine cell lines; for GI50: Homo sapiens, read-out: Log GI50 (concentration in mol/L causing 50% growth inhibition) (converted)
Method: as §1

Breast cancer cell lines = experiment: NCI in vitro anticancer screen, breast panel; type: cell-based, human; conditions: average of six to nine cell lines; for GI50: Homo sapiens, read-out: Log GI50 (concentration in mol/L causing 50% growth inhibition) (converted)
Method: as §1

[8] = system: human cancer cell lines of colon (Colo205), lung (Hop-62), cervix (SiHa), prostate (DU145, PC3), oral (DWD, HT1080), and breast (MCF7, Zr-75-1) origin; experiment: In vitro evaluation of cytotoxic activity in selected human cancer cell lines, 48 h exposure; type: cell-based; conditions: 48 h continuous drug exposure
Method: In vitro evaluation of cytotoxic activity. Compounds 6a, 6b, 6d, 6e, 8a and 8b were evaluated for in vitro anticancer activity against nine human tumor cells derived from six cancer types (colon, prostate, oral, lung, cervix and breast cancer) as shown in Table 2. […] Compounds 6a, 6b, 6d, 6e, 8a and 8b have been evaluated for their in vitro cytotoxicity in selected human cancer cell lines of colon (Colo205), lung (Hop-62), cervix (SiHa), prostate (DU145, PC3), oral (DWD, HT1080), and breast (MCF7, Zr-75-1) origin. A protocol of 48 h continuous drug exposure has been used and an […] has been used to estimate cell viability or growth. The results are expressed as percent of cell growth determined relative to that of untreated control cells

| Compound | ΔTm after incubation at 37° C. for 0 h [1] [°C] | ΔTm after incubation at 37° C. for 18 h [1] [°C] | ΔTm after incubation at 37° C. for 36 h [1] [°C] | Log10LC50 mean graph midpoint (MG_MID) [2] | Log10GI50 mean graph midpoint (MG_MID) [2] | Log10TGI mean graph midpoint (MG_MID) [2] | GI50 [3] [µM] | GI50 [4] [µM] | GI50 (Colon cancer cell lines) [µM] | GI50 (CNS cancer cell lines) [µM] | GI50 [5] [µM] | GI50 [6] [µM] | GI50 (Renal cancer cell lines) [µM] | GI50 [7] [µM] | GI50 (Breast cancer cell lines) [µM] | cytotoxicity against some cancer cell lines [8] | other results |
| --- | --- | --- | --- | --- | --- | --- | --- | --- | --- | --- | --- | --- | --- | --- | --- | --- | --- |
| O=C(CN1CCN(c2ccccn2)CC1)Nc1ccc(Cl)cc1C(=O)c1ccccc1Cl [Compound 6a, N1-[4-chloro-2-(2-chlorobenzoyl)phenyl]-2-[4-(2-pyridyl)piperazino]acetamide] | 1.2 | 1.7 | 2.2 | −4.35 | −6.51 | −6.54 | 3.55 | 2.51 | 5.75 | 5.62 | 1.29 | 6.76 | 1.55 | 1.78 | 3.89 | promising cytotoxicity | GI50 [2]: < 20 µM |
| O=C(CN1CCN(c2ncccn2)CC1)Nc1ccc(Cl)cc1C(=O)c1ccccc1Cl [Compound 6b, N1-[4-chloro-2-(2-chlorobenzoyl)phenyl]-2-[4-(2-pyrimidinyl)piperazino]acetamide] | 1.5 | 2.1 | 2.6 | −5.73 | −6.57 | −6.89 | 5.5 | 3.63 | 2.14 | 5.89 | 1.78 | 5.75 | 5.62 | 16.6 | 6.76 | – | – |
| COc1ccccc1N1CCN(CC(=O)Nc2ccc(Cl)cc2C(=O)c2ccccc2Cl)CC1 [Compound 6c, N1-[4-chloro-2-(2-chlorobenzoyl)phenyl]-2-[4-(2-methoxyphenyl)piperazino]acetamide] | 1.4 | 1.6 | 2.3 | – | – | – | – | – | – | – | – | – | – | – | – | promising cytotoxicity | – |
| CC(C)(C)c1cn2cccc(C(=O)N3CCN(CC(=O)Nc4ccc(Cl)cc4C(=O)c4ccccc4Cl)CC3)c2n1 [Compound 6e] | 1.9 | 2.3 | 2.8 | −5.39 | −5.93 | −6.28 | 0.851 | 0.661 | 0.589 | 1.41 | 3.47 | 3.55 | 1.05 | 1.35 | 2.14 | promising cytotoxicity | – |
| O=C(CN1CCN(CC(=O)Nc2ccc(Cl)cc2C(=O)c2ccccc2Cl)CC1)Nc1ccc(Cl)cc1C(=O)c1ccccc1Cl [Compound 6f, N1-[4-chloro-2-(2-chlorobenzoyl)phenyl]-2-(4-2-[4-chloro-2-(2-chlorobenzoyl)anilino]-2-oxoethylpiperazino)acetamide] | 1.3 | 2.1 | 3.0 | – | – | – | – | – | – | – | – | – | – | – | – | – | – |
| O=C(CN1CCN(CCCN2CCN(CC(=O)Nc3ccc(Cl)cc3C(=O)c3ccccc3Cl)CC2)CC1)Nc1ccc(Cl)cc1C(=O)c1ccccc1Cl [Compound 6g] | 1.6 | 2.6 | 2.9 | – | – | – | – | – | – | – | – | – | – | – | – | – | – |
| COc1cc(/C=C/C(=O)c2ccc(F)cc2)ccc1OCCCN1CCN(CC(=O)Nc2ccc(Cl)cc2C(=O)c2ccccc2Cl)CC1 [Compound 8] | 1.5 | 2.3 | 2.4 | – | – | – | – | – | – | – | – | – | – | – | – | – | – |
| O=C(CN1CCN(CCCOc2oc3ccccc3c(=O)c2-c2ccccc2)CC1)Nc1ccc(Cl)cc1C(=O)c1ccccc1Cl [Compound 8a] | 1.4 | 2.1 | 2.1 | −5.32 | −6.19 | −6.33 | – | – | – | – | – | – | – | – | – | promising cytotoxicity | Log GI50 (concentration in mol/L causing 50% growth inhibition) [3]: −6.11 mol/L; Log GI50 (concentration in mol/L causing 50% growth inhibition) [4]: −5.75 mol/L; Log GI50 (concentration in mol/L causing 50% growth inhibition) (Colon cancer cell lines): −5.75 mol/L; Log GI50 (concentration in mol/L causing 50% growth inhibition) (CNS cancer cell lines): −5.69 mol/L; Log GI50 (concentration in mol/L causing 50% growth inhibition) [5]: −5.79 mol/L; Log GI50 (concentration in mol/L causing 50% growth inhibition) [6]: −5.80 mol/L; Log GI50 (concentration in mol/L causing 50% growth inhibition) (Renal cancer cell lines): −5.71 mol/L; Log GI50 (concentration in mol/L causing 50% growth inhibition) [7]: −5.56 mol/L; Log GI50 (concentration in mol/L causing 50% growth inhibition) (Breast cancer cell lines): −5.70 mol/L |
| O=C(c1ccccc1)c1cc(Cl)ccc1OCCCCN1CCN(CCCCOc2ccc(Cl)cc2C(=O)c2ccccc2)CC1 [Compound 8b] | 1.6 | 2.6 | 2.9 | −5.25 | −6.35 | −5.51 | 0.631 | 3.24 | – | 4.17 | – | 5.75 | 2.57 | 3.16 | 3.47 | – | GI50 [2]: < 20 µM |
| COc1cc2c(cc1O)N=CC1CCCN1C2=O (stereo not drawn) [DC-81, reference compound] | 0.3 | 0.7 | – | – | – | – | – | – | – | – | – | – | – | – | – | – | – |

— patent publication US8394954B2, “Benzophenone hybrids as anticancer agents and processes for the preparation thereof” (Council of Scientific & Industrial Research, priority 2007, dated 2013)
